Laboratory results published in ChEMBL document CHEMBL1201862, “PubChem BioAssay data set” (2004).
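Dose response: 5 concentrations. Exposure: 48 h. Format: 96-well plates. Endpoint: linear interpolation; highest concentration if not reached. GI50 is the concentration that inhibits growth by half.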 Activity calls are given as the source filed them. Cut-off read from the data, not from the text of the source: active = GI50 up to about 1.1 µM and inactive = higher.

How the values were obtained:
Assay in all cases: growth of human tumour cells (NCI), 48 h
786-0 = system: 786-0
A498 = system: A498
A549 = system: A549
ACHN = system: ACHN
CAKI-1 = system: CAKI-1
CCRF-CEM = system: CCRF-CEM
COLO 205 = system: COLO 205
DU-145 = system: DU-145
EKVX = system: EKVX
HCC 2998 = system: HCC 2998
HCT-116 = system: HCT-116
HCT-15 = system: HCT-15
HL-60 = system: HL-60
HOP-62 = system: HOP-62
HOP-92 = system: HOP-92
HT-29 = system: HT-29
Hs-578T = system: Hs-578T
IGROV-1 = system: IGROV-1
K562 = system: K562
KM12 = system: KM12
LOX IMVI = system: LOX IMVI
M14 = system: M14
MCF7 = system: MCF7
MDA-MB-231 = system: MDA-MB-231
MDA-MB-435 = system: MDA-MB-435
MDA-N = system: MDA-N
MOLT-4 = system: MOLT-4
Malme-3M = system: Malme-3M
NCI-H226 = system: NCI-H226
NCI-H23 = system: NCI-H23
NCI-H460 = system: NCI-H460
NCI-H522 = system: NCI-H522
NCI/ADR-RES = system: NCI/ADR-RES
OVCAR-3 = system: OVCAR-3
OVCAR-4 = system: OVCAR-4
OVCAR-5 = system: OVCAR-5
OVCAR-8 = system: OVCAR-8
PC-3 = system: PC-3
RPMI-8226 = system: RPMI-8226
RXF 393 = system: RXF 393
SF-268 = system: SF-268
SF-295 = system: SF-295
SF-539 = system: SF-539
SK-MEL-28 = system: SK-MEL-28
SK-MEL-2 = system: SK-MEL-2
SK-MEL-5 = system: SK-MEL-5
SK-OV-3 = system: SK-OV-3
SN12C = system: SN12C
SNB-19 = system: SNB-19
SNB-75 = system: SNB-75
SR = system: SR
SW-620 = system: SW-620
T47D = system: T47D
TK-10 = system: TK-10
U-251 = system: U-251
UACC-257 = system: UACC-257
UACC-62 = system: UACC-62
UO-31 = system: UO-31
BT-549 = system: BT-549

Measured: GI50

O=C1c2ccccc2C(=O)c2sc(Nc3cc(Cl)ccc3Cl)nc21
active: HL-60 0.736 µM | OVCAR-3 0.74 µM
inactive: 786-0 3.61 µM | A498 21 µM | A549 16.4 µM | ACHN 5.3 µM | CAKI-1 5.02 µM | CCRF-CEM 4.29 µM | COLO 205 16 µM | DU-145 8.57 µM | EKVX 12.9 µM | HCC 2998 5.86 µM | HCT-116 3.3 µM | HOP-62 15 µM | HOP-92 15.1 µM | HT-29 14.1 µM | Hs-578T 9.25 µM | IGROV-1 4.15 µM | K562 2.99 µM | KM12 12.2 µM | LOX IMVI 2.28 µM | M14 4.69 µM | MCF7 1.7 µM | MDA-MB-231 1.87 µM | MDA-MB-435 2.01 µM | MDA-N 1.82 µM | MOLT-4 2.52 µM | Malme-3M 1.44 µM | NCI-H226 17.6 µM | NCI-H23 4.72 µM | NCI-H460 6.68 µM | NCI-H522 2.95 µM | NCI/ADR-RES 2.63 µM | OVCAR-4 4.16 µM | OVCAR-5 20.9 µM | OVCAR-8 3.77 µM | PC-3 3.21 µM | RPMI-8226 3.22 µM | RXF 393 14.3 µM | SF-268 4.09 µM | SF-295 4.03 µM | SF-539 3.16 µM | SK-MEL-28 6.7 µM | SK-MEL-2 11.4 µM | SK-MEL-5 1.53 µM | SK-OV-3 16 µM | SN12C 2.08 µM | SNB-19 14.3 µM | SNB-75 15.1 µM | SR 2.52 µM | SW-620 2.94 µM | T47D 3.99 µM | TK-10 15 µM | U-251 6.56 µM | UACC-257 2.51 µM | UACC-62 2.49 µM | UO-31 6.03 µM
2.94 µM: HCT-15

Nc1nc(-c2ccccc2)nc2c1[n+]([O-])c1ccccc1[n+]2[O-]
inactive: 786-0 > 100 µM | A498 > 100 µM | A549 > 100 µM | ACHN > 100 µM | BT-549 > 100 µM | CAKI-1 > 100 µM | CCRF-CEM > 100 µM | COLO 205 > 100 µM | DU-145 > 100 µM | EKVX > 100 µM | HCC 2998 > 100 µM | HCT-116 > 100 µM | HL-60 > 100 µM | HOP-62 > 100 µM | HT-29 > 100 µM | Hs-578T > 100 µM | IGROV-1 > 100 µM | K562 > 100 µM | KM12 > 100 µM | LOX IMVI > 100 µM | M14 > 100 µM | MCF7 > 100 µM | MDA-MB-231 > 100 µM | MDA-MB-435 > 100 µM | Malme-3M > 100 µM | NCI-H226 > 100 µM | NCI-H23 > 100 µM | NCI-H460 > 100 µM | NCI-H522 > 100 µM | NCI/ADR-RES > 100 µM | OVCAR-3 > 100 µM | OVCAR-5 > 100 µM | OVCAR-8 > 100 µM | PC-3 > 100 µM | RPMI-8226 > 100 µM | RXF 393 > 100 µM | SF-268 > 100 µM | SF-295 > 100 µM | SF-539 > 100 µM | SK-MEL-28 > 100 µM | SK-MEL-2 > 100 µM | SK-MEL-5 83.4 µM | SK-OV-3 > 100 µM | SN12C > 100 µM | SNB-19 > 100 µM | SW-620 > 100 µM | T47D > 100 µM | TK-10 > 100 µM | U-251 > 100 µM | UACC-257 > 100 µM | UACC-62 > 100 µM | UO-31 > 100 µM
> 100 µM: HCT-15

C=Cc1c(C)c(OC)cc2c1Oc1ccc(OC)c(C)c1CC2
> 100 µM: HCT-15
inactive: 786-0 > 100 µM | A498 > 100 µM | A549 > 100 µM | ACHN > 100 µM | CAKI-1 > 100 µM | CCRF-CEM > 100 µM | COLO 205 > 100 µM | DU-145 > 100 µM | EKVX 45.7 µM | HCC 2998 > 100 µM | HCT-116 > 100 µM | HL-60 > 100 µM | HOP-62 > 100 µM | HOP-92 > 100 µM | HT-29 > 100 µM | Hs-578T > 100 µM | IGROV-1 > 100 µM | K562 > 100 µM | KM12 > 100 µM | M14 > 100 µM | MCF7 > 100 µM | MDA-MB-231 > 100 µM | MDA-MB-435 76 µM | MDA-N > 100 µM | MOLT-4 > 100 µM | Malme-3M > 100 µM | NCI-H226 39.9 µM | NCI-H23 > 100 µM | NCI-H460 > 100 µM | NCI-H522 88.5 µM | NCI/ADR-RES 49.1 µM | OVCAR-4 > 100 µM | OVCAR-5 > 100 µM | OVCAR-8 > 100 µM | PC-3 52.6 µM | RPMI-8226 > 100 µM | RXF 393 > 100 µM | SF-268 > 100 µM | SF-295 > 100 µM | SF-539 > 100 µM | SK-MEL-28 > 100 µM | SK-MEL-2 > 100 µM | SK-MEL-5 53.6 µM | SK-OV-3 > 100 µM | SN12C > 100 µM | SNB-19 > 100 µM | SNB-75 84.3 µM | SR > 100 µM | SW-620 > 100 µM | T47D > 100 µM | TK-10 > 100 µM | U-251 > 100 µM | UACC-257 43.5 µM | UACC-62 > 100 µM | UO-31 > 100 µM

CCOC(=O)C(CC(C)C)NC(=O)CSc1nnc(COc2ccc(Cl)cc2)n1-c1ccccc1 (configuration not stated)
18.5 µM: HCT-15
inactive: 786-0 15.3 µM | A498 12.7 µM | A549 21.2 µM | ACHN 13.3 µM | BT-549 17.7 µM | CCRF-CEM 5.08 µM | COLO 205 18.2 µM | DU-145 17.1 µM | HCC 2998 10.4 µM | HCT-116 14.8 µM | HL-60 21 µM | HOP-62 19.4 µM | HOP-92 18.6 µM | HT-29 18.5 µM | Hs-578T 22.3 µM | IGROV-1 15.4 µM | K562 19.3 µM | KM12 18 µM | LOX IMVI 14.9 µM | M14 18 µM | MCF7 18.5 µM | MDA-MB-231 16.9 µM | MDA-MB-435 16.9 µM | MOLT-4 4.51 µM | Malme-3M 19.3 µM | NCI-H226 22.4 µM | NCI-H23 16 µM | NCI-H460 14.9 µM | NCI/ADR-RES 20.5 µM | OVCAR-3 10.5 µM | OVCAR-4 16.2 µM | OVCAR-5 19.9 µM | PC-3 17.1 µM | RPMI-8226 16.4 µM | RXF 393 16.6 µM | SF-268 18.2 µM | SF-539 21.8 µM | SK-MEL-28 16.7 µM | SK-MEL-2 16.3 µM | SK-MEL-5 17.1 µM | SK-OV-3 27.2 µM | SN12C 15.6 µM | SNB-19 17.3 µM | SNB-75 16.5 µM | SR 2.3 µM | SW-620 20 µM | T47D 14.4 µM | TK-10 17.9 µM | U-251 19.3 µM | UACC-257 11.2 µM | UACC-62 16.4 µM | UO-31 1.86 µM

N/C(=N\O)NCCN1CCCCCCC1
> 100 µM: HCT-15
inactive: 786-0 > 100 µM | A498 > 100 µM | A549 > 100 µM | ACHN 20.1 µM | CAKI-1 > 100 µM | CCRF-CEM > 100 µM | COLO 205 > 100 µM | DU-145 > 100 µM | EKVX > 100 µM | HCC 2998 > 100 µM | HCT-116 12.1 µM | HL-60 > 100 µM | HOP-62 > 100 µM | HOP-92 > 100 µM | HT-29 > 100 µM | Hs-578T > 100 µM | IGROV-1 26.7 µM | K562 > 100 µM | KM12 > 100 µM | LOX IMVI > 100 µM | M14 > 100 µM | MCF7 26.5 µM | MDA-MB-231 > 100 µM | MDA-MB-435 > 100 µM | MDA-N > 100 µM | MOLT-4 > 100 µM | Malme-3M > 100 µM | NCI-H226 > 100 µM | NCI-H23 > 100 µM | NCI-H460 > 100 µM | NCI-H522 > 100 µM | NCI/ADR-RES > 100 µM | OVCAR-3 > 100 µM | OVCAR-4 > 100 µM | OVCAR-5 > 100 µM | OVCAR-8 42 µM | PC-3 28.4 µM | RPMI-8226 > 100 µM | RXF 393 > 100 µM | SF-268 > 100 µM | SF-295 > 100 µM | SF-539 > 100 µM | SK-MEL-28 > 100 µM | SK-MEL-2 > 100 µM | SK-MEL-5 > 100 µM | SK-OV-3 > 100 µM | SN12C 37.2 µM | SNB-19 > 100 µM | SNB-75 > 100 µM | SR > 100 µM | SW-620 > 100 µM | T47D 80.9 µM | TK-10 > 100 µM | UACC-257 > 100 µM | UACC-62 > 100 µM | UO-31 > 100 µM
